Results on five compounds are retold here after patent US12637476B2, “Substituted carbamate macrocyclic compounds and related methods of treatment” (Alkermes, Inc., priority 2021, dated 2026).

Each structure is given as a SMILES string. Some results are limits rather than exact numbers.

The target in the experiment is T1, human orexin-2 receptor (OX2R) (Homo sapiens, UniProt O43614).
T1 construct: expressed in transfected cells; host or cells: T-Rex CHO cells, induced with doxycycline
T1 sequence (O43614 1-444): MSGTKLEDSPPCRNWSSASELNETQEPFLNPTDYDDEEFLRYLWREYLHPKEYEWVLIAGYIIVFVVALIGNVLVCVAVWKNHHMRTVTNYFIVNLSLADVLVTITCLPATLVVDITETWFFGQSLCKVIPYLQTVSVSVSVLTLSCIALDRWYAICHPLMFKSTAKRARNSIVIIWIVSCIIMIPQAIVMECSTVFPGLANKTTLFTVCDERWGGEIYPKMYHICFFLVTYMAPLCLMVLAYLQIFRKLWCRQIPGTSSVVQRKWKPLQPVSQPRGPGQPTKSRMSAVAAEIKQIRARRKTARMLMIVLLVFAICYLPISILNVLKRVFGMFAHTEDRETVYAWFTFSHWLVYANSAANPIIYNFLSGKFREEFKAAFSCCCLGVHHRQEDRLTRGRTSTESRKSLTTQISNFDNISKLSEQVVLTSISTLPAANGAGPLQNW
The experiment in a line: Human OX2R IP1 assay. The experiment is classed as cell-based. The conditions noted are these: T-Rex CHO cells stably overexpressing human OX2R, IP1 accumulation, 1 hr at 37 degrees C. Here is the method: T-Rex CHO cells stably overexpressing the human orexin-2 receptor (OX2R) were induced overnight with 1 μg/mL of doxycycline in a T225 flask. 24 hours post induction, cells were lifted with accutase and plated into a 384-well proxy plate at 30,000 cells/well. Cells were then treated with different test compounds in 1× stimulation buffer containing 10 mM Hepes, 1 mM CaCl2, 0.5 mM MgCl2, 4.2 mM KCl, 146 mM NaCl, 5.5 mM glucose, and 50 mM LiCl, pH 7.4, for 1 hr at 37 degrees C. Following incubation, the reaction was terminated by the addition of detection mix, which is composed of IP1-d2 and anti-IP1-cryptate diluted in lysis buffer as well as 1× stimulation buffer. The plates were allowed to incubate for 1 hour at room temperature and were then read in the EnVision® multimode plate reader, measuring inositol phosphate levels.
Cisbio IP1 is a cell-based functional assay quantifying the accumulation of inositol monophosphate (IP), a metabolite released as a result of orexin 2 receptor activation through the phospholipase C-Gq signaling pathway. This is a competitive immunoassay in which the IP1 produced by the cells upon receptor activation competes with the IP1 analog coupled to the d2 fluorophore (acceptor) for binding to an anti-IP1 monoclonal antibody labeled with Eu cryptate (donor). The measured HTRF-FRET based signal is inversely proportional to the IP1 concentration produced.
The EC50 values reported in Table 2 were obtained according to the human OX2R IP1 assay described above. Data are the mean EC50 values±S.E.M.

As usually defined, the EC50 is the concentration that produces a half-maximal response. Lower therefore signals a more potent agent. The compound `CS(=O)(=O)N[C@H]1CCCN2C(=O)COC(=O)N(CC(F)(F)F)[C@H]3CC[C@H](CC3)OC[C@@H]12` [Compound 11] returned an EC50 of more than 1 µM. In the case of `CS(=O)(=O)N[C@H]1CCCN2C(=O)COC(=O)N(C3CC3)[C@H]3CC[C@H](CC3)OC[C@@H]12` [Compound 3] it was 0.1 to 1 µM. Turning to `CCN1C(=O)OCC(=O)N2CCC[C@H](NS(C)(=O)=O)[C@@H]2CO[C@H]2CC[C@@H]1CC2` [Compound 1], the EC50 is 0.1 to 1 µM.

`CS(=O)(=O)N[C@H]1CCCN2C(=O)COC(=O)N(CC3CC3)[C@H]3CC[C@H](CC3)OC[C@@H]12` [Compound 10] had an EC50 of 0.1 to 1 µM. Under `CN1C(=O)OCC(=O)N2CCC[C@H](NS(C)(=O)=O)[C@@H]2CO[C@H]2CC[C@@H]1CC2` [Compound 2] stands 0.1 to 1 µM.
